{"source": "patent US7109174B2", "about": "“Anticonvulsant derivatives useful for preventing the development of type II diabetes mellitus and syndrome X” (Ortho-McNeil Pharmaceutical, Inc., priority 2000, dated 2006)", "key": {"[1]": {"test_system": "animal model of kindled epilepsy", "conditions": "cited from earlier work"}, "Female db/db mice": {"test_system": "Female db/db mice", "experiment": "Oral glucose tolerance test (fasted) in female db/db mice after 11 days oral dosing", "type": "in vivo", "conditions": "for Oral Glucose Tolerance Test (fasted) Plasma Glucose: ± sem", "experimental": "Female db/db mice (C57BLK S/J-m^+/^+ Lepr^db Jackson Labs, Bar Harbor, Me.), 7–8 weeks of age, were housed four per cage in solid-bottomed shoe box cages. Room temperature was maintained at 68–72° F. and humidity at 50–65%. Room lighting was on a 12-hour light/12-hour dark cycle. The mice were maintained on NIH Rat and Mouse/Auto 6F reduced fat diet #5K52 (PMI Nutrition Int'l Inc.). Food and water were supplied ad libitum.\nTest compound and vehicle were dosed orally and prepared as suspensions in 0.5% hydroxypropylmethylcellulose (Dow Chemical, Midland, Mich.). The dosing volume was 10 mL/kg of body weight.\nDifferent groups of female db/db mice (7–8/group) were orally gavaged daily for 11 days with either 0.5% methylcellulose in dH2O (vehicle), topiramate at 30 or 100 mg/kg/day or 2,3:4,5-bis-O-(1-methylethylidene)-β-L-fructopyranose sulfamate (hereinafter referred to as Compound V) at 30 or 100 mg/kg/day. On day 10, the animals were fasted for 20 hours before being tested for oral glucose tolerance (OGT). On day 11, four hours after the final dose for each group, an oral glucose tolerance test (OGTT) was performed by oral glucose administration of 2 g/kg. Animals were bled through tail clip at 0 (before glucose), 30, 60 and 120 min after glucose challenge. The blood samples were collected into heparinized CB microvettes and then put on ice. The plasma samples will be assayed for plasma glucose determination by using SIGMA DIAGNOSTICS Trinder reagent (Sigma, St. Louis, Mo.). Statistical analysis was performed using the program Instat (Graphpad, Monrovia, Calif.) and performing one-way ANOVA with a Dunnett's multiple comparison test.\nFollowing the above described procedure, the effect of topiramate and compound V on oral glucose tolerance in female db/db mice, 7 mice/group, was determined, with results as listed in Table 9. The abbreviation N represents the number of animals per study group."}, "[2]": {"test_system": "db/db mice (Homozygous Diabetic Mice)", "experiment": "Plasma glucose, triglycerides and body weight in female diabetic db/db mice, 11 days oral dosage", "type": "in vivo", "conditions": "for Plasma Glucose % Change / Plasma Triglycerides % Change / Change in Body Weight / Plasma Triglycerides Plasma Conc. / Plasma Glucose Plasma Conc.: 11 days; for Plasma Glucose % Change / Plasma Triglycerides % Change: versus vehicle; for Change in Body Weight / Plasma Triglycerides Plasma Conc. / Plasma Glucose Plasma Conc.: ± SEM", "experimental": "Six to seven week old female C57 BLK SIJ-m^+/^+ Lepr^db mice (db/db) and heterozygous littermates were purchased from The Jackson Laboratory (Bar Harbor, Me.). Upon arrival the mice were quarantined for 5 days and housed in pairs in shoe-box cages containing ALPHA-dri® bedding (Shepherd Speciality Papers, Inc., Kalamazoo, Mich.). The mice were maintained at an ambient temperature of 21 to 23° C. on a 12 hour-12 hour light-dark schedule and given access to water and food ad libitum. The diet was comprised of NIH (National Institutes of Health) Rat and Mouse/Auto 6F Reduced Fat Diet No. 5K52 (PMI Nutrition International Inc., Brentwood, Mo.).\nThe vehicle, used as a reference and for test compounds, was 0.5% methylcellulose dissolved in water. The compounds were either fully dissolved or uniformly suspended in the vehicle when administered to the mice.\nThe db/db mice were randomly separated into five groups of eight, as were the heterozygous littermates. The groups were as follows: one vehicle control group and four groups that each received one of four doses of topiramate (TPM) (10, 30, 100, or 300 mg/kg, respectively). Topiramate or vehicle was administered orally by gavage once a day during the 8th hour of the light portion of the light-dark cycle.\nBetween 18 and 24 hours after the last dose was administered, the mice were anesthetized with CO2/O2 (70:30) and blood from the retro-orbital sinus puncture was collected into 2 mL heparinized snap-top polypropylene tubes, then placed in ice.\nPlasma was separated from blood cells by centrifugation (15 minutes at 1600 g). For samples not assayed immediately, the plasma was transferred into 96-well plates and frozen at −70° C.\nGlucose and triglycerides were assayed using standard procedures for blood clinical laboratories. Specifically, the samples were analyzed using an automated Hitachi 717 autoanalyzer (Boehringer Mannheim/Hitachi 717 Autoanalyzer, Boehringer Mannheim Laboratory Systems Division, Indianapolis, Ind.). A statistical analysis of data for the drug-treated groups compared to data for the vehicle group was performed using the one-way analysis of variance (ANOVA) with Dunnett's Multiple Comparisons test.\nFollowing the procedure described above, the effect of topiramate on plasma glucose and triglyceride levels was determined for female diabetic db/db mice and littermates, following 11 days oral dosage, with results as listed in Table 3 and 4. Body weights are in Table 5. The abbreviation N represents the number of animals per study group."}, "[3]": {"test_system": "rodent models of epilepsy", "conditions": "several rodent models of epilepsy; cited from earlier work"}, "human epilepsy": {"test_system": "human epilepsy", "conditions": "clinical trials; cited from earlier work"}, "Female ZDF rats": {"test_system": "Female ZDF rats", "experiment": "Blood glucose and oral glucose tolerance in female ZDF rats dosed orally for 16 days", "type": "in vivo", "conditions": "for Plasma Glucose Levels: 16 days, ± SEM", "experimental": "Female ZDF rats were also randomly divided into control and topiramate (30 or 100 mg/kg/day) treated groups, dosed orally for 16 days, and tested for blood glucose levels and oral glucose tolerance following glucose challenge of 2 g/kg. The effect of topiramate was as listed in Table 10 (N=8 rats per treatment group)."}, "[4]": {"conditions": "100 mg/kg oral once a day, P < 0.01"}, "[5]": {"conditions": "300 mg/kg oral once a day, P < 0.01"}}}
{"smiles": "CC1(C)O[C@@H]2[C@@H](CO[C@@]3(COS(N)(=O)=O)OC(C)(C)O[C@@H]23)O1", "note": "[Topiramate, 2,3:4,5-bis-O-(1-methylethylidene)-β-D-fructopyranose sulfamate]", "values": [{"measurement": "seizure block", "setting": "[1]", "value": "effectively block seizures"}, {"measurement": "Oral Glucose Tolerance Test (fasted) Plasma Glucose", "setting": "Female db/db mice; 30 mg/kg/day, 0 min (before glucose 2 g/kg)", "value": "188 ± 16.7", "unit": "mg/dL"}, {"measurement": "Oral Glucose Tolerance Test (fasted) Plasma Glucose", "setting": "Female db/db mice; 30 mg/kg/day, 30 min after glucose 2 g/kg", "value": "401 ± 68.4", "unit": "mg/dL"}, {"measurement": "Oral Glucose Tolerance Test (fasted) Plasma Glucose", "setting": "Female db/db mice; 30 mg/kg/day, 60 min after glucose 2 g/kg", "value": "295 ± 31.5", "unit": "mg/dL"}, {"measurement": "Oral Glucose Tolerance Test (fasted) Plasma Glucose", "setting": "Female db/db mice; 30 mg/kg/day, 120 min after glucose 2 g/kg", "value": "124 ± 20", "unit": "mg/dL"}, {"measurement": "Oral Glucose Tolerance Test (fasted) Plasma Glucose", "setting": "Female db/db mice; 100 mg/kg/day, 0 min (before glucose 2 g/kg)", "value": "160 ± 12.8", "unit": "mg/dL"}, {"measurement": "Oral Glucose Tolerance Test (fasted) Plasma Glucose", "setting": "Female db/db mice; 100 mg/kg/day, 30 min after glucose 2 g/kg", "value": "454 ± 38.5", "unit": "mg/dL"}, {"measurement": "Oral Glucose Tolerance Test (fasted) Plasma Glucose", "setting": "Female db/db mice; 100 mg/kg/day, 60 min after glucose 2 g/kg", "value": "271 ± 52.6", "unit": "mg/dL"}, {"measurement": "Oral Glucose Tolerance Test (fasted) Plasma Glucose", "setting": "Female db/db mice; 100 mg/kg/day, 120 min after glucose 2 g/kg", "value": "184 ± 32.3", "unit": "mg/dL"}, {"measurement": "elevated blood glucose levels induced by oral glucose challenge", "setting": "Female db/db mice; 30 or 100 mg/kg/day", "value": "suppressed"}, {"measurement": "fasting glucose levels", "setting": "Female db/db mice; 30 or 100 mg/kg/day", "value": "decreased"}, {"measurement": "Plasma Glucose % Change", "setting": "[2]; 10 mg/kg oral once a day", "value": "−27.4", "unit": "%"}, {"measurement": "Plasma Triglycerides % Change", "setting": "[2]; 10 mg/kg oral once a day", "value": "−18.9", "unit": "%"}, {"measurement": "Change in Body Weight", "setting": "[2]; 10 mg/kg oral once a day", "value": "1.7 ± 0.9", "unit": "g"}, {"measurement": "Plasma Triglycerides Plasma Conc.", "setting": "[2]; 10 mg/kg oral once a day", "value": "277 ± 30", "unit": "mg/dL"}, {"measurement": "Plasma Glucose Plasma Conc.", "setting": "[2]; 10 mg/kg oral once a day, P < 0.05", "value": "382 ± 46", "unit": "mg/dL"}, {"measurement": "decrease in blood glucose vs. control", "setting": "[2]; 10 mg/kg/day, P<0.05", "value": 27, "unit": "%"}, {"measurement": "Plasma Glucose % Change", "setting": "[2]; 30 mg/kg oral once a day", "value": "−34.6", "unit": "%"}, {"measurement": "Plasma Triglycerides % Change", "setting": "[2]; 30 mg/kg oral once a day", "value": "−11.2", "unit": "%"}, {"measurement": "Change in Body Weight", "setting": "[2]; 30 mg/kg oral once a day", "value": "2.6 ± 1.0", "unit": "g"}, {"measurement": "Plasma Triglycerides Plasma Conc.", "setting": "[2]; 30 mg/kg oral once a day", "value": "303 ± 29", "unit": "mg/dL"}, {"measurement": "Plasma Glucose Plasma Conc.", "setting": "[2]; 30 mg/kg oral once a day, P < 0.01", "value": "344 ± 31", "unit": "mg/dL"}, {"measurement": "decrease in blood glucose vs. control", "setting": "[2]; 30 mg/kg/day, P<0.01", "value": 35, "unit": "%"}, {"measurement": "Plasma Glucose % Change", "setting": "[2]; 100 mg/kg oral once a day", "value": "−36.6", "unit": "%"}, {"measurement": "Plasma Triglycerides % Change", "setting": "[2]; 100 mg/kg oral once a day", "value": "−33.7", "unit": "%"}, {"measurement": "Change in Body Weight", "setting": "[2]; 100 mg/kg oral once a day", "value": "1.5 ± 0.7", "unit": "g"}, {"measurement": "Plasma Glucose Plasma Conc.", "setting": "[2]; [4]", "value": "333 ± 42", "unit": "mg/dL"}, {"measurement": "Plasma Triglycerides Plasma Conc.", "setting": "[2]; [4]", "value": "227 ± 15", "unit": "mg/dL"}, {"measurement": "decrease in blood glucose vs. control", "setting": "[2]; 100 mg/kg/day, P<0.01", "value": 37, "unit": "%"}, {"measurement": "Plasma Glucose % Change", "setting": "[2]; 300 mg/kg oral once a day", "value": "−60.5", "unit": "%"}, {"measurement": "Plasma Triglycerides % Change", "setting": "[2]; 300 mg/kg oral once a day", "value": "−41.7", "unit": "%"}, {"measurement": "Change in Body Weight", "setting": "[2]; 300 mg/kg oral once a day", "value": "0.7 ± 2.4", "unit": "g"}, {"measurement": "Plasma Glucose Plasma Conc.", "setting": "[2]; [5]", "value": "207 ± 41", "unit": "mg/dL"}, {"measurement": "Plasma Triglycerides Plasma Conc.", "setting": "[2]; [5]", "value": "199 ± 16", "unit": "mg/dL"}, {"measurement": "decrease in blood glucose vs. control", "setting": "[2]; 300 mg/kg/day, P<0.01", "value": 61, "unit": "%"}, {"measurement": "decrease in plasma triglyceride levels versus diabetic controls", "setting": "[2]; 100 and 300 mg/kd/day, P<0.01", "value": "up to 42%"}, {"measurement": "seizure block", "setting": "[3]", "value": "effectively block seizures"}, {"measurement": "efficacy as adjunctive therapy or monotherapy in simple and complex partial seizures and secondarily generalized seizures", "setting": "human epilepsy", "value": "effective"}, {"measurement": "Plasma Glucose Levels", "setting": "Female ZDF rats; 30 mg/kg/day oral, 60 Min after Challenge (glucose 2 g/kg), P < 0.05", "value": "342 ± 32", "unit": "md/dL"}, {"measurement": "Plasma Glucose Levels", "setting": "Female ZDF rats; 30 mg/kg/day oral, 90 Min after Challenge, P < 0.01", "value": "269 ± 32", "unit": "md/dL"}, {"measurement": "Plasma Glucose Levels", "setting": "Female ZDF rats; 30 mg/kg/day oral, 120 Min after Challenge, P < 0.01", "value": "206 ± 26", "unit": "md/dL"}, {"measurement": "Plasma Glucose Levels", "setting": "Female ZDF rats; 30 mg/kg/day oral, Time = 0", "value": "121 ± 13", "unit": "md/dL"}, {"measurement": "Plasma Glucose Levels", "setting": "Female ZDF rats; 100 mg/kg/day oral, 60 Min after Challenge (glucose 2 g/kg), P < 0.01", "value": "333 ± 32", "unit": "md/dL"}, {"measurement": "Plasma Glucose Levels", "setting": "Female ZDF rats; 100 mg/kg/day oral, 90 Min after Challenge, P < 0.01", "value": "242 ± 28", "unit": "md/dL"}, {"measurement": "Plasma Glucose Levels", "setting": "Female ZDF rats; 100 mg/kg/day oral, 120 Min after Challenge, P < 0.01", "value": "173 ± 23", "unit": "md/dL"}, {"measurement": "Plasma Glucose Levels", "setting": "Female ZDF rats; 100 mg/kg/day oral, Time = 0", "value": "129 ± 15", "unit": "md/dL"}, {"measurement": "oral glucose tolerance", "setting": "Female ZDF rats; at 60, 90 and 120 minutes after glucose challenge", "value": "improves"}]}
